According to patent US5208223A, “Phosphocholine derivative inhibitors of phospholipase A2” (American Cyanamid Company, priority 1992, dated 1993):
Structures can show the parent of a compound that is named as a salt. Where two headings read alike, the source gives them in different places.

What was measured:
porcine pancreatic PLA2 [1] = molecular target: T1, porcine pancreatic PLA2 (Sus scrofa, UniProt P00592); assay: PLA2 assay: in vitro porcine pancreatic phospholipase A2, preincubation of drug+enzyme, substrate 2 nM; type: biochemical; conditions: preincubation, subs. con. 2; for IC50: read-out: IC50 (converted)
T1 construct: purchased Sigma
Description: (§1) Phospholipase A2 activity was measured by a radiochemical assay in which labeled synthetic phosphatidylcholine substrate is converted by porcine pancreatic PLA2 to free radiolabeled arachidonate and lyso PC. Radiolabeled arachidonate is extracted from the reaction mixture and separated from unreacted substrate by column chromatography or TLC. Radioactivity (cpm) in samples is quantitated by liquid scintillation counting. Specific details are as follows:
(§2) Labeled substrate(1-stearyl-2-^3 H-arachidonylphosphatidylcholine; Amersham, sp. act. 84 (uCi/mmole, 0.025 to 0.2 uCi/assay tube and unlabeled substrates (Avanti), in sufficient quantity to give 20,000 cpm to 50,000 cpm and 10 μM to 1,000 μM final concentration/assay tube are dried under a stream of nitrogen. The PLA2 and mPLA2 assays utilized a […] substrate concentration. The mHPLA2 and HPLA2 assays (vida infra) utilized a 10 μM substrate concentration and the SmPLA2 assay utilized a substrate concentration ranging from 100 to 1000 μm. The substrate is then redissolved in 0.1M tris-HCl buffer, pH 9.0 containing 10 mM CaCl2 and 10 mM Na taurocholate detergent. The mixture is sonicated in a Kontes Sonifier to yield a homogeneous dispersion. The "mixed" micellar substrate is clear. An aliquot is reserved for a cpm count (total substrate). The total reaction volume is 500 μL; siliconized glassware or plasticware is used throughout. Enzyme (Sigma, sp. act.>690 U/mg protein and preferably 900 U/mg protein) is diluted 1:750 or 1:1000 in 0.1M tris-HCl buffer, pH 9.0 (without Ca^++ and detergent). Enzyme dilution depends on substrate concentration and required enzyme concentration.
(§3) The substrate in buffer is kept on ice until the reaction is started. The reaction is started by adding 10 μL of diluted enzyme solution to 490 μL of micellar substrate solution. Samples are incubated in a 37° C. water bath for 15 minutes with gentle mixing. The reaction is terminated by the addition of 100 μL of 1M fresh trichloroacetic acid (TCA) solution and chilling the tubes on ice for 30 minutes.
(§4) Samples (600 μL) are extracted with 3 ml CHCl3 /MeOH (2:1) for thin layer chromatography or in hexane/ether (9:1) for column chromatography. The phases are separated by gentle centrifugation at 700 rpm×5'. The organic phase is recovered.
(§5) Labeled arachidonate extracted with CHCl3 /MeOH is separated on silica gel G TLC plates (Analtech). Twenty μL of a 2 mg/ml internal standard solution of arachidonic acid (Sigma) is combined with 2-3 ml of the organic phase. The entire mixture is dried under nitrogen and redissolved in 50 μL of CHCl3 /MeOH (2:1). A 20 μL sample is counted in 10 ml of Beckman Redi-solv HP and spotted on silica gel G plates. The solvent system used to develop the plate is CHCl3 /MeOH/13.5N NH3 /H2 O (70:30:4:1). Plates are developed in a glass chamber for 1-11/2 hours, air dried, and the spots visualized in an iodine vapor chamber. Standards of phosphatidylcholine, lyso PC, and arachidonic acid (Sigma) are made as 2 mg/ml stocks in CHCl3 /MeOH (2:1) and spotted on plates. Spots corresponding to arachidonate and phospholipid are scraped and counted in 10 ml Beckman Redi-Solv HP scintillation fluid.
(§6) Samples are extracted with hexane/ether and the upper organic phase recovered. An aliquot is applied to a Silicar CC4 (Malincrodt) column. Columns are prepared using 1 ml of a 1:1 slurry of silicar CC4 in hexane/ether in a Pasteur pipet (approx. 2 cm height). Columns are rinsed with 500 μL of hexane/ether before adding the sample (300-600 μL) to the column. Columns are eluted with a total of 6 ml of hexane/ether. The 6 ml sample is counted in 10 ml of Beckman Redi-Solv HP scintillation fluid.
or the phospholipase A2 assay, compounds are prepared as 1 mg/ml stock solutions in MeOH and diluted appropriately in PBS.

porcine pancreatic PLA2 [2] = molecular target: T1, porcine pancreatic PLA2; assay: MHPLA2 assay: in vitro porcine pancreatic phospholipase A2, mixed micelle design, [s]=10 μm; type: biochemical; conditions: subs. con. 10
Description: as §1, §2, §3, §4, §5, §6
or the phospholipase A2 assay, compounds are prepared as 1 mg/ml stock solutions in MeOH and diluted appropriately in PBS. […]

[3] = dose 10 μ/ml, read-out: % Inh. Avg.

T1 sequence (P00592 23-146): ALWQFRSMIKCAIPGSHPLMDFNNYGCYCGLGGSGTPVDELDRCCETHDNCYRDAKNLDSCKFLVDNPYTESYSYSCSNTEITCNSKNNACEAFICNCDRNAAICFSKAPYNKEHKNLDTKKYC

| Compound | inhibition at 10 µg/mL (porcine pancreatic PLA2 [1]; dose 10 μ/ml, read-out: % Inh.) | inhibition at 20 µg/mL (porcine pancreatic PLA2 [1]; dose 20 μ/ml, read-out: % Inh.) | IC50 (porcine pancreatic PLA2 [1]) | inhibition at 10 µg/mL (porcine pancreatic PLA2 [1]; [3]) | other results |
| --- | --- | --- | --- | --- | --- |
| CCCCCCCCCCCCCCCCOCC(COP(=O)([O-])OCC[N+](C)(C)C)CC1(CCCCCCCCCCCCCCCC)CO1 (stereo not drawn) [7-[(2-Hexadecyloxiranyl)methyl]-4-hydroxy-N,N,N-trimethyl-3,5,9-trioxa-4-phosphapentacosan-1-aminium, hydroxide, inner salt, 4-oxide] | 78% | 75% | 2.41 µM | – | – |
| CCCCCCCCCCCCCCCCOC[C@@H](COP(=O)([O-])OCC[N+](C)(C)C)OP(=O)(OC)OCCCCCCCCCCCCCCCC (single isomer, unassigned) | – | – | 4.12 µM | – | inhibition at 25 µg/mL (porcine pancreatic PLA2 [1]; dose 25 μ/ml, read-out: % Inh.): 91% |
| CCCCCCCCCCCCCCCCOC[C@H](COP(=O)([O-])OCC[N+](C)(C)C)OP(=O)(OC)OCCCCCCCCCCCCCCCC (single isomer, unassigned) [3,5,8,10-Tetraoxa-4,9-diphosphahexacosan-1-aminium, 7-[(hexa] | – | – | – | – | % Inh. Avg. (porcine pancreatic PLA2 [1]; dose 20 μ/ml): 28% |
| CCCCCCCCCCCCCCCCOCC(COP(=O)([O-])OCC[N+](C)(C)C)OP(=O)(OC)OCCCCC (single isomer, unassigned) [3,5,8,10-Tetraoxa-4,9-diphosphapentadecan-1-aminium, 7-[(hex] [3,5,8,10-Tetraoxa-4,9-diphosphapentadecan-1-aminium, 7-[(hexadecyloxy)methyl]-4-hydroxy-9-methoxy-N,N,N-trimethyl-, hydroxide, 4-(inner salt), 4,9-dioxide, less polar isomer] | – | – | – | – | % Inh. (porcine pancreatic PLA2 [2]; dose 25 μ/ml): STIM |
| CCCCCCCCCCCCCCCCOC[C@H](COP(=O)([O-])OCC[N+](C)(C)C)OP(=O)(OC)OCCCCCCCCCCCCCCCC (single isomer, unassigned) | – | – | 17.1 µM | 22% | inhibition at 20 µg/mL (porcine pancreatic PLA2 [1]; dose 20 μ/ml, read-out: % Inh. Avg.): 34% |
| CCCCCCCCCCCCCCCCOCC(COP(=O)([O-])OCC[N+](C)(C)C)CC(C)(O)CCCCCCCCCCCCCCCC (stereo not drawn) [4-Hydroxy-7-(2-hydroxy-2-methyloctadecyl)-N,N,N-trimethyl-3,5,9-trioxa-4-phosphapentacosan-1-aminium, hydroxide, inner salt, 4-oxide] | 65% | 66% | 7.89 µM | 64% | – |
| CCCCCCCCCCCCCCCCOCC(COP(=O)([O-])OCC[N+](C)(C)C)CC(O)CCCCCCCCCCCCCCCC (single isomer, unassigned) [4-Hydroxy-7-(2-hydroxyoctadecyl)-N,N,N-trimethyl-3,5,9-triox] [4-Hydroxy-7-(2-hydroxyoctadecyl)-N,N,N-trimethyl-3,5,9-trioxa-4-phosphapentacosan-1-aminium, hydroxide, inner salt, 4-oxide isomer] | – | – | – | – | % Inh. (porcine pancreatic PLA2 [1]; dose 10 μ/ml): 80% |
| CCCCCCCCCCCCCCCCOP(=O)(O)OCCOP(=O)([O-])OCC[N+](C)(C)C [3,9-Dihydroxy-N,N,N-trimethyl-3,5,8,10-tetraoxa-4,9-diphosphahexacosan-1-aminium, hydroxide, 4-(inner salt) 4,9-dioxide] | – | – | – | 20% | – |
| C=C(CCCCCCCCCCCCCCCC)CC(COCCCCCCCCCCCCCCCC)COP(=O)([O-])OCC[N+](C)(C)C (stereo not drawn) [4-Hydroxy-N,N,N-trimethyl-7-(2-methyleneoctadecyl)-3,5,9-trioxa-4-phosphaoentacosan-1-aminium, hydroxide, inner salt, 4-oxide] | 59% | 52% | 5.2 µM | 62% | – |
| CCCCCCCCCCCCCCCCOCC(COP(=O)([O-])OCC[N+](C)(C)C)OP(=O)(OC)OCCCCC (single isomer, unassigned) [3,5,8,10-Tetraoxa-4,9-diphosphapentadecan-1-aminium, 7-[(hexadecyloxy)methyl]-4-hydroxy-9-methoxy-N,N,N-trimethyl-, hydroxide, 4-(inner salt), 4,9-dioxide, less polar isomer] | 76% | 83% | 8.05 µM | – | – |
| CCCCCCCCCCCCCCCCOP(=O)(OC)OCCOP(=O)(O)OCCBr (stereo not drawn) [2-[[(2-Bromoethoxy)hydroxyphosphinyl]oxy]ethyl hexadecyl phosphoric acid, methyl ester] | – | – | – | 21% | – |
| CCCCCCCCCCCCCCCCOCC(COP(=O)([O-])OCC[N+](C)(C)C)OP(=O)(O)OCCCCCCCCCCCCCCCC (stereo not drawn) [3,5,8,10-Tetraoxa-4,9-diphosphahexacosan-1-aminium, 7-[(hexa] [3,5,8,10-Tetraoxa-4,9-diphosphahexacosan-1-aminium, 7-[(hexadecyloxy)methyl]-4,9-dihydroxy-N,N,N-trimethyl-, hydroxide, 4-inner salt), 4,9-dioxide] | – | – | – | – | % Inh. (porcine pancreatic PLA2 [2]; dose 10 μ/ml): STIM; % Inh. (porcine pancreatic PLA2 [2]; dose 25 μ/ml): STIM |
| CCCCCCCCCCCCCCCCOCC(COP(=O)([O-])OCC[N+](C)(C)C)CC(=O)CCCCCCCCCCCCCCCC (stereo not drawn) [4-Hydroxy-N,N,N-trimethyl-7-(2-oxooctadecyl)-3,5,9-trioxa-4-phosphapentacosan-1-aminium, hydroxide inner salt, 4 oxide] | 59% | 62% | 7.92 µM | 60% | – |
| CCCCCCCCCCCCCCCCOCC(CC=O)COP(=O)([O-])OCC[N+](C)(C)C (stereo not drawn) [4-Hydroxy-N,N,N-trimethyl-7-(2-oxoethyl)-3,5,9-trioxa-4-phosphapentacosan-1-aminium, hydroxide, inner salt, 4-oxide] | 47% | 62% | 26 µM | 43% | – |
| CCCCCCCCCCCCCCCCOCC(COP(=O)([O-])OCC[N+](C)(C)C)OP(=O)(OC)OCCCCCCCCCCCCCCCC (stereo not drawn) [3,5,8,10-Tetraoxa-4,9-diphosphahexacosan-1-aminium, 7-[(hexa] [3,5,8,10-Tetraoxa-4,9-diphosphahexacosan-1-aminium, 7-[(hexadecyloxy)methyl]-4-hydroxy-9-methoxy-N,N,N-trimethyl-, hydroxide, inner salt, 4,9-dioxide] | – | – | – | – | % Inh. Avg. (porcine pancreatic PLA2 [1]; dose 10 μ/ml): 30%; % Inh. Avg. (porcine pancreatic PLA2 [1]; dose 25 μ/ml): 75%; % Inh. Avg. (porcine pancreatic PLA2 [1]; dose 50 μ/ml): 77% |
| CCCCCCCCCCCCCCCCOCC(COP(=O)([O-])OCC[N+](C)(C)C)CC(O)CCCCCCCCCCCCCCCC (single isomer, unassigned) [4-Hydroxy-7-(2-hydroxyoctadecyl)-N,N,N-trimethyl-3,5,9-trioxa-4-phosphapentacosan-1-aminium, hydroxide, inner salt, 4-oxide] | 80% | 80% | 2.18 µM | – | – |
| CCCCCCCCCCCCCCCCCCOP(=O)(O)OCCOP(=O)([O-])OCC[N+](C)(C)C [4,9-Dihydroxy-N,N,N-trimethyl-3,5,8,10-tetraoxa-4,9-diphosphaoctacosan-1-aminium, hydroxide, 4-(inner salt), 4,9-dioxide] | – | – | – | 40% | – |
| CCCCCCCCCCCCCCCCOCC(COP(=O)([O-])OCC[N+](C)(C)C)CC(O)CCCCCCCCCCCCCCCC (single isomer, unassigned) [4-Hydroxy-7-(2-hydroxyoctadecyl)-N,N,N-trimethyl-3,5,9-trioxa-4-phosphapentacosan-1-aminium, hydroxide, inner salt, 4-oxide isomer] | – | – | 2.32 µM | – | – |
